Usually Km stands for the substrate concentration at which the rate is half of its maximum.

One test concerns the target T1, hOGA (Homo sapiens, UniProt O60502).
T1 sequence (O60502 1-916): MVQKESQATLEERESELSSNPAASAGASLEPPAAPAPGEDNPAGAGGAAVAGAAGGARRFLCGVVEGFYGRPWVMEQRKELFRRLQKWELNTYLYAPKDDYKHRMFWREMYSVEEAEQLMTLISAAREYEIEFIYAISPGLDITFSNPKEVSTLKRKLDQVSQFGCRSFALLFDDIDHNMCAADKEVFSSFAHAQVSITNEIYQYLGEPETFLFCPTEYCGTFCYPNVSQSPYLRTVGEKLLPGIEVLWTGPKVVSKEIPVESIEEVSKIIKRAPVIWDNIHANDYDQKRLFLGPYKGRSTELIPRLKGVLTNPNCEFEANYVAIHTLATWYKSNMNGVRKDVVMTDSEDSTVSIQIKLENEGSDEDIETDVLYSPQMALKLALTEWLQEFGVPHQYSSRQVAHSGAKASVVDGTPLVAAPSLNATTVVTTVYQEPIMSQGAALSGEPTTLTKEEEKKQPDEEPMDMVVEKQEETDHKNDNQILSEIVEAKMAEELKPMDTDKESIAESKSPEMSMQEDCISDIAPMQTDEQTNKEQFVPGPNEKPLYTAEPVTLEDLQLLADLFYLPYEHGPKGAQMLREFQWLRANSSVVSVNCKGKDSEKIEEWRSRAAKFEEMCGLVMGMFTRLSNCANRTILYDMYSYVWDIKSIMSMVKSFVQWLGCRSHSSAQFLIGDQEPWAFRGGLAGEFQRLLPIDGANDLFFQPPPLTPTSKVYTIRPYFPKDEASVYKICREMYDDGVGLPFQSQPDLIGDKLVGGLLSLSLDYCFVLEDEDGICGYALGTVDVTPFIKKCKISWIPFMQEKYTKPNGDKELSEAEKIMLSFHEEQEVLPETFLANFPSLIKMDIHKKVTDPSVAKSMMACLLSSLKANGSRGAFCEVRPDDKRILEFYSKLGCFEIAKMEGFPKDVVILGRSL
As to the kind of experiment: hOGA glycopeptide hydrolysis, substrate competition assay with 4MU-GlcNAc reporter. It is filed as biochemical. Further details: GST (N); made in house; host or cells: transiently transfected HEK293 cells. The following applies: wild-type full-length hOGA, competition with 4MU-GlcNAc reporter substrate, 37°C, 50 mM citrate-phosphate buffer pH 7.4, 0.1 mg/ml BSA, triplicate, ± error of curve-fit, read-out: Michaelis constant (KM) of glycopeptide substrate for hOGA. The protocol:
Protein was expressed in transiently transfected HEK293 cells and purified via glutathione sepharose affinity chromatography.
hOGA and CpOGA glycopeptide hydrolysis assays were carried out as described previously ([Dorfmueller et al., 2006; Schimpl et al., 2010]) using multisubstrate enzyme kinetics with the fluorigenic pseudosubstrate 4MU-GlcNAc as the reporter substrate. […] Reactions were performed at 37°C in 50 mM citrate-phosphate buffer (pH 7.4) and 0.1 mg/ml BSA. Experiments were performed in triplicate, and data were analyzed and plotted with GraphPad PRISM.

Another test deals with T2, hOGA Y69K (Homo sapiens, UniProt O60502, Y69K).
T2 construct: GST (N); made in house; host or cells: transiently transfected HEK293 cells
T2 sequence (O60502 1-916 Y69K): T1 sequence (O60502 1-916) with Y69K
As to the kind of experiment: hOGA Y69K mutant glycopeptide hydrolysis, substrate competition assay. Format: biochemical. Particulars: hOGA point mutant Y69K; competition with 4MU-GlcNAc; 37°C, pH 7.4; triplicate; read-out: Michaelis constant (KM) for hOGA Y69K.

Residue numbers refer to the chain shown, from its start. Read-outs that look alike come from different tables or passages of the source.

In the case of “PVSVPYS(O-GlcNAc)SAQSTS [TAB1 (Ser395) 13, 13-residue O-GlcNAc glycopeptide derived from TAB1 Ser395 site]”, the results for the Km on hOGA (listed as PVSVPYS(O-GlcNAc)SAQSTS), on hOGA and at hOGA Y69K were 940 ± 80 µM, 900 ± 30 µM and more than 4 mM, respectively.

Take “p53 (Ser149) 11: 11-residue O-GlcNAc glycopeptide derived from p53 Ser149 site”: the Km stood at 21 ± 3 µM in the test with hOGA and 0.35 ± 0.02 mM in the test with hOGA Y69K.

For the substance “VAHS(O-GlcNAc)GAK [hOGA (Ser405) 7, 7-residue O-GlcNAc glycopeptide derived from hOGA Ser405 site]”, the Km at hOGA Y69K is more than 4 mM.

Source of the values: article PMC3476531, “Synergy of Peptide and Sugar in O-GlcNAcase Substrate Recognition” (Chemistry & Biology, 2012).
